Holding throughout (assay): MIC, broth microdilution in Meuller-Hinton broth (NCCLS)
On the technique in general: Broth dilution looks for growth in wells or tubes with falling amounts of substance.

For one experiment, the system named is 602 S. haemolyticus. Type of experiment: cell-based, Staphylococus haemolyticus. The settings on record: clinical isolate. As for the experimental part:
(§1) Antibacterial activity in vitro was investigated by broth microdilution method in Meuller-Hinton broth as recommended by NCCLS. All strains tested were clinical isolates either sensitive or resistant to natural glycopeptides. Results are reported in the tables as MIC (minimal inhibitory concentration) in μg/ml.
(§2) The glycopeptides were tested against a variety of strains, indicated below, including Staphylococus epidermidis, Staphylococus haemolyticus, glycopeptides-intermediate Staphylococus aureus (GISA), glocopeptide-sensitive Enterococcus faecalis (GSE), and glocopeptide-resistant Enterococcus faecalis (GRE). Results are shown in the table as minimum inhibitory concentration (MIC) in units of μg/ml: […]

For a further experiment, the system named is 533 S. epidermidis. In kind it is cell-based, Staphylococus epidermidis. As to conditions: clinical isolate. As to the method:
as §1, §2

Another experiment concerns 3798 S. aureus (GISA). In kind it is cell-based, Staphylococus aureus. As to conditions: glycopeptides-intermediate clinical isolate. As to the method: as §1, §2
The next experiment concerns 3797 S. aureus (GISA). In kind it is cell-based, Staphylococus aureus. As to conditions: glycopeptides-intermediate clinical isolate. As to the method:
as §1, §2

The next experiment concerns 560 E. faecalis (GRE). In kind it is cell-based, Enterococcus faecalis. The settings on record: glycopeptide-resistant clinical isolate. As to the method: as §1, §2
In the next experiment the test system is 559 E. faecalis (GSE). Type of experiment: cell-based, Enterococcus faecalis. As to conditions: glycopeptide-sensitive clinical isolate. As to the method:
as §1, §2

In a further experiment the test system is 568 E. faecium (GSE). Type of experiment: cell-based. The settings on record: glycopeptide-sensitive clinical isolate. As to the method:
as §1, §2

A further experiment has as its system 569 E. faecium (GRE). Type of experiment: cell-based. The settings on record: glycopeptide-resistant clinical isolate. As for the experimental part: as §1, §2

Converted amounts (≈) assume the structure as drawn.

In the case of `CNC(CC(C)C)C(=O)NC1C(=O)NC(CC(N)=O)C(=O)NC2C(=O)NC3C(=O)NC(C(=O)NC(C(=O)O)c4cc(O)cc(O)c4-c4cc3ccc4O)C(OC3CC(C)(N)C(O)C(C)O3)c3ccc(cc3)Oc3cc2cc(c3OC2OC(CO)C(O)C(O)C2OC2CC(C)(NC(=O)C(N)CCCCN)C(O)C(C)O2)Oc2ccc(cc2Cl)C1O` (stereo not shown) [Compound 203], the “MIC 602 S. haemolyticus” value in the experiment with 602 S. haemolyticus was 0.13 µg/mL (≈ 0.0771 µM). The “MIC 533 S. epidermidis” value against 533 S. epidermidis came out at 0.13 µg/mL (≈ 0.0771 µM). Also, the “MIC 3798 S. aureus (GISA)” value in the experiment with 3798 S. aureus (GISA) came to 8 µg/mL (≈ 4.74 µM). In addition, in the experiment with 3797 S. aureus (GISA), the “MIC 3797 S. aureus (GISA)” value was 4 µg/mL (≈ 2.37 µM). In addition, the “MIC 560 E. faecalis (GRE)” value in the experiment on 560 E. faecalis (GRE) was above 64 µg/mL. For the same compound, the “MIC 559 E. faecalis (GSE)” value against 559 E. faecalis (GSE) turned out to be 0.25 µg/mL (≈ 0.148 µM). The “MIC 568 E. faecium (GSE)” value with 568 E. faecium (GSE) was 0.25 µg/mL (≈ 0.148 µM). In addition, the “MIC 569 E. faecium (GRE)” value against 569 E. faecium (GRE) is 16 µg/mL (≈ 9.49 µM).

Regarding `CNC(CC(C)C)C(=O)NC1C(=O)NC(CC(N)=O)C(=O)NC2C(=O)NC3C(=O)NC(C(=O)NC(C(=O)O)c4cc(O)cc(O)c4-c4cc3ccc4O)C(O)c3ccc(c(Cl)c3)Oc3cc2cc(c3OC2OC(CO)C(O)C(O)C2OC2CC(C)(NC(=O)CNCc3ccc(-c4ccc(Cl)cc4)cc3)C(O)C(C)O2)Oc2ccc(cc2Cl)C1O` (stereo not shown) [Compound 210], in the experiment with 602 S. haemolyticus, the “MIC 602 S. haemolyticus” value is 0.25 µg/mL (≈ 0.146 µM). The “MIC 533 S. epidermidis” value in the experiment on 533 S. epidermidis was determined as 0.13 µg/mL (≈ 0.0762 µM). The “MIC 3798 S. aureus (GISA)” value against 3798 S. aureus (GISA) came to 1 µg/mL (≈ 0.586 µM). The “MIC 3797 S. aureus (GISA)” value with 3797 S. aureus (GISA) amounted to 1 µg/mL (≈ 0.586 µM). In addition, the “MIC 560 E. faecalis (GRE)” value against 560 E. faecalis (GRE) stood at 16 µg/mL (≈ 9.37 µM). The “MIC 559 E. faecalis (GSE)” value in the experiment with 559 E. faecalis (GSE) is 0.5 µg/mL (≈ 0.293 µM). For the same compound, the “MIC 568 E. faecium (GSE)” value against 568 E. faecium (GSE) was found to be 0.25 µg/mL (≈ 0.146 µM). Further, in the experiment on 569 E. faecium (GRE), the “MIC 569 E. faecium (GRE)” value was found to be 16 µg/mL (≈ 9.37 µM).

For the compound `CNC(CC(C)C)C(=O)NC1C(=O)NC(CC(N)=O)C(=O)NC2C(=O)NC3C(=O)NC(C(=O)NC(C(=O)NC4C5CC6CC(C5)CC4C6)c4cc(O)cc(O)c4-c4cc3ccc4O)C(OC3CC(C)(N)C(O)C(C)O3)c3ccc(cc3)Oc3cc2cc(c3OC2OC(CO)C(O)C(O)C2OC2CC(C)(N)C(O)C(C)O2)Oc2ccc(cc2Cl)C1O` (stereo not shown) [Compound 213, 2-adamantanamino eremomycin], the “MIC 602 S. haemolyticus” value in the experiment on 602 S. haemolyticus is 0.25 µg/mL (≈ 0.148 µM). For the same compound, the “MIC 533 S. epidermidis” value with 533 S. epidermidis worked out at 0.25 µg/mL (≈ 0.148 µM). Besides, in the experiment with 3798 S. aureus (GISA), the “MIC 3798 S. aureus (GISA)” value worked out at 2 µg/mL (≈ 1.18 µM). Besides, in the experiment with 3797 S. aureus (GISA), the “MIC 3797 S. aureus (GISA)” value was found to be 1 µg/mL (≈ 0.591 µM). In the experiment with 560 E. faecalis (GRE), the “MIC 560 E. faecalis (GRE)” value stood at 8 µg/mL (≈ 4.73 µM). In the experiment with 559 E. faecalis (GSE), the “MIC 559 E. faecalis (GSE)” value turned out to be 0.5 µg/mL (≈ 0.296 µM). The “MIC 568 E. faecium (GSE)” value in the experiment on 568 E. faecium (GSE) worked out at 0.5 µg/mL (≈ 0.296 µM). For the same compound, in the experiment on 569 E. faecium (GRE), the “MIC 569 E. faecium (GRE)” value is 4 µg/mL (≈ 2.37 µM).

As for `CCCCCCCCOc1ccc(CNCC(=O)NC2(C)CC(OC3C(Oc4c5cc6cc4Oc4ccc(cc4Cl)C(O)C(NC(=O)C(CC(C)C)NC)C(=O)NC(CC(N)=O)C(=O)NC6C(=O)NC4C(=O)NC(C(=O)NC(C(=O)O)c6cc(O)cc(O)c6-c6cc4ccc6O)C(OC4CC(C)(N)C(O)C(C)O4)c4ccc(cc4)O5)OC(CO)C(O)C3O)OC(C)C2O)cc1` (stereo not shown) [Compound 214], in the experiment on 602 S. haemolyticus, the “MIC 602 S. haemolyticus” value turned out to be 1 µg/mL (≈ 0.545 µM). Besides, the “MIC 533 S. epidermidis” value in the experiment on 533 S. epidermidis worked out at 1 µg/mL (≈ 0.545 µM). Also, the “MIC 3798 S. aureus (GISA)” value against 3798 S. aureus (GISA) is 4 µg/mL (≈ 2.18 µM). For the same compound, in the experiment on 3797 S. aureus (GISA), the “MIC 3797 S. aureus (GISA)” value amounted to 4 µg/mL (≈ 2.18 µM). The “MIC 560 E. faecalis (GRE)” value with 560 E. faecalis (GRE) was found to be 8 µg/mL (≈ 4.36 µM). In the experiment on 559 E. faecalis (GSE), the “MIC 559 E. faecalis (GSE)” value turned out to be 1 µg/mL (≈ 0.545 µM). Also, the “MIC 568 E. faecium (GSE)” value against 568 E. faecium (GSE) was 0.5 µg/mL (≈ 0.273 µM). For the same compound, in the experiment on 569 E. faecium (GRE), the “MIC 569 E. faecium (GRE)” value is 8 µg/mL (≈ 4.36 µM).

For `CCCCOc1ccc(CNCC(=O)NC2(C)CC(OC3C(Oc4c5cc6cc4Oc4ccc(cc4Cl)C(O)C4NC(=O)C(NC(=O)C6NC(=O)C(CC(N)=O)NC(=O)C(NC(=O)C(CC(C)C)NC)C(O)c6ccc(c(Cl)c6)O5)c5ccc(O)c(c5)-c5c(O)cc(O)cc5C(C(=O)O)NC4=O)OC(CO)C(O)C3O)OC(C)C2O)cc1` (stereo not shown) [Compound 218], the “MIC 602 S. haemolyticus” value against 602 S. haemolyticus is 0.13 µg/mL (≈ 0.0779 µM). For the same compound, the “MIC 533 S. epidermidis” value against 533 S. epidermidis was 0.13 µg/mL (≈ 0.0779 µM). Moreover, the “MIC 3798 S. aureus (GISA)” value in the experiment on 3798 S. aureus (GISA) amounted to 1 µg/mL (≈ 0.599 µM). Moreover, the “MIC 3797 S. aureus (GISA)” value against 3797 S. aureus (GISA) was 0.5 µg/mL (≈ 0.3 µM). Also, the “MIC 560 E. faecalis (GRE)” value in the experiment on 560 E. faecalis (GRE) was above 64 µg/mL. The “MIC 559 E. faecalis (GSE)” value in the experiment with 559 E. faecalis (GSE) amounted to 1 µg/mL (≈ 0.599 µM). In the experiment on 568 E. faecium (GSE), the “MIC 568 E. faecium (GSE)” value worked out at 0.5 µg/mL (≈ 0.3 µM). In addition, the “MIC 569 E. faecium (GRE)” value in the experiment with 569 E. faecium (GRE) is above 64 µg/mL.
